# According to patent US8846981B2, “1,1-di[(alkylphenoxy)ethoxy]cyclohexanes” (Southern Lithoplate, Inc., priority 2012, dated 2014):
# Columns and labels:
# [1] = Solubility of the ketals in water / deionized water; assay type: physicochemical; settings: for Solubility in water: product or starting alcohol as described in the example
# Source text: A typical aqueous alkaline developer for a positive-working, lithographic printing plate contains roughly 5% by weight of NaOH or KOH. A 1.0 M NaOH solution is equivalent to 4% by weight of NaOH.
# [2] = related art; cited from earlier work
# [3] = Solubility in a 1.0 M NaOH water solution; assay type: physicochemical; settings: 1.0 M NaOH water solution (equivalent to 4% by weight NaOH)
# Source text: The physical appearance of the ketals from Examples 1-4 and from Comparative Examples A-B are given in the following table, along with their solubility in deionized water and in a 1.0 M NaOH water solution. A typical aqueous alkaline developer for a positive-working, lithographic printing plate contains roughly 5% by weight of NaOH or KOH. A 1.0 M NaOH solution is equivalent to 4% by weight of NaOH.
# [4] = related art; cited from earlier work; remark: listed apart in the source
# [5] = Acid decomposition of the ketal back to starting alcohol and cyclohexanone; assay type: physicochemical; settings: addition of an acid, such as p-toluenesulfonic acid
# Protocol: A stirred mixture of 72 g (0.5 mol) of 1,1-dimethoxycyclohexane, 250 g (1.0 mol) of 2-[4-(1,1,3,3-tetramethylbutyl)phenoxy]ethanol, 0.080 g of p-toluenesulfonic acid, and 300 ml of toluene was reacted in a flask with a thermometer and fractional distillation column at 120° C. for 8 hours with continuous stirring. The low boiling methanol that was produced during the reaction was removed. The reaction mixture was cooled to room temperature and washed with a small amount of an aqueous 1.0 M sodium hydroxide solution until the mixture was neutralized. The reaction mixture was then washed with a saturated sodium chloride solution to remove any remaining water in the toluene. Next the reaction mixture was dried over anhydrous potassium carbonate to remove any minor amounts of water and to make sure all of the p-toluenesulfonic acid was removed. The resulting mixture was filtered. The filtrate was evaporated under reduced pressure at 60° C. until all of the toluene was removed. […] The starting surfactant is water-insoluble. This ketal with a theoretical molecular weight of 580 has the structural formula shown below.
compound,measurement,setting,value
"CC(C)(C)CC(C)(C)c1ccc(OCCO)cc1 [2-[4-(1,1,3,3-tetramethylbutyl)phenoxy]ethanol]",Solubility in water,[1],water-insoluble
"c1ccc(OCCOC2(OCCOc3ccccc3)CCCCC2)cc1 [A, 1,1-di(2-phenoxyethoxy)cyclohexane]",Decomposition by strong acids (background statement),[2],decompose this ketal into cyclohexanone and 2-phenoxyethanol
same,Solubility in 1.0M NaOH,[3],insoluble
same,"Solubility in water (background statement, words)",[4],water insoluble
same,Decomposition by acid,[5],can be converted back to the starting alcohol and cyclohexanone
same,Solubility in DI Water,[1]; deionized water,insoluble
same,Solubility in water,[1],water-insoluble
"CC(C)(C)c1ccc(OCCO)cc1 [2-[4-(1,1-dimethylethyl)phenoxy]ethanol]",Solubility in water,[1],water-insoluble
OCCOc1ccccc1 [2-phenoxyethanol],Solubility in water,[1],low water solubility
